Legend:
[1] = system: Phosphatidylinositol 4,5-bisphosphate 3-kinase catalytic subunit alpha isoform (Homo sapiens), P42336 [M1043I]; conditions: Compound concentration 1000.0 nM
[2] = system: Phosphatidylinositol 4,5-bisphosphate 3-kinase catalytic subunit alpha isoform (Homo sapiens), P42336 [Q546K]; conditions: Compound concentration 1000.0 nM
[3] = target: Homeodomain-interacting protein kinase 2 (Homo sapiens) (UniProt Q9H2X6); conditions: Compound concentration 1000.0 nM
[4] = target: Tyrosine-protein kinase receptor Tie-1 (Homo sapiens) (UniProt P35590); conditions: Compound concentration 1000.0 nM
[5] = target: Transient receptor potential cation channel subfamily M member 6 (Homo sapiens) (UniProt Q9BX84); conditions: Compound concentration 1000.0 nM
[6] = target: SNF-related serine/threonine-protein kinase (Homo sapiens) (UniProt Q9NRH2); conditions: Compound concentration 1000.0 nM
[7] = target: Cyclin-dependent kinase 7 (Homo sapiens) (UniProt P50613); conditions: Compound concentration 1000.0 nM
[8] = target: Mitogen-activated protein kinase kinase kinase 4 (Homo sapiens) (UniProt Q9Y6R4); conditions: Compound concentration 1000.0 nM
[9] = target: Dual specificity tyrosine-phosphorylation-regulated kinase 2 (Homo sapiens) (UniProt Q92630); conditions: Compound concentration 1000.0 nM
[10] = target: Tyrosine-protein kinase BTK (Homo sapiens) (UniProt Q06187); conditions: Compound concentration 1000.0 nM
[11] = system: Mast/stem cell growth factor receptor Kit (Homo sapiens), P10721 [A829P]; conditions: Compound concentration 1000.0 nM
[12] = target: Tyrosine-protein kinase Tec (Homo sapiens) (UniProt P42680); conditions: Compound concentration 1000.0 nM
[13] = target: Serine/threonine-protein kinase/endoribonuclease IRE1 (Homo sapiens) (UniProt O75460); conditions: Compound concentration 1000.0 nM
[14] = target: 5'-AMP-activated protein kinase catalytic subunit alpha-2 (Homo sapiens) (UniProt P54646); conditions: Compound concentration 1000.0 nM
[15] = target: 5-hydroxytryptamine receptor 6 (Homo sapiens) (UniProt P50406); conditions: Compound concentration 10.0 uM
[16] = target: Interleukin-1 receptor-associated kinase 3 (Homo sapiens) (UniProt Q9Y616); conditions: Compound concentration 1000.0 nM
[17] = target: Activin receptor type-1 (Homo sapiens) (UniProt Q04771); conditions: Compound concentration 1000.0 nM
[18] = target: Proto-oncogene tyrosine-protein kinase ROS (Homo sapiens) (UniProt P08922); conditions: Compound concentration 1000.0 nM
[19] = target: Activin receptor type-2B (Homo sapiens) (UniProt Q13705); conditions: Compound concentration 1000.0 nM
[20] = target: Tyrosine-protein kinase Lyn (Homo sapiens) (UniProt P07948); conditions: Compound concentration 1000.0 nM
[21] = target: Alpha-1B adrenergic receptor (Homo sapiens) (UniProt P35368); conditions: Compound concentration 10.0 uM
Rattus norvegicus = species on record: Rattus norvegicus; conditions: Compound concentration 10.0 uM
[22] = target: D(1B) dopamine receptor (Homo sapiens) (UniProt P21918); conditions: Compound concentration 10.0 uM
[23] = system: Phosphatidylinositol 4,5-bisphosphate 3-kinase catalytic subunit alpha isoform (Homo sapiens), P42336 [I800L]; conditions: Compound concentration 1000.0 nM
[24] = system: Phosphatidylinositol 4,5-bisphosphate 3-kinase catalytic subunit alpha isoform (Homo sapiens), P42336 [E545A]; conditions: Compound concentration 1000.0 nM
[25] = target: Bone morphogenetic protein receptor type-2 (Homo sapiens) (UniProt Q13873); conditions: Compound concentration 1000.0 nM
[26] = target: Casein kinase II subunit alpha (Homo sapiens) (UniProt P68400); conditions: Compound concentration 1000.0 nM
[27] = target: Interferon-induced, double-stranded RNA-activated protein kinase (Homo sapiens) (UniProt P19525); conditions: Compound concentration 1000.0 nM
[28] = target: Beta-adrenergic receptor kinase 1 (Homo sapiens) (UniProt P25098); conditions: Compound concentration 1000.0 nM
[29] = target: Cyclin-dependent kinase 4 (Homo sapiens) (UniProt P11802); conditions: Compound concentration 1000.0 nM
[30] = target: Muscarinic acetylcholine receptor M5 (Homo sapiens) (UniProt P08912); conditions: Compound concentration 10.0 uM
[31] = target: Activin receptor type-2A (Homo sapiens) (UniProt P27037); conditions: Compound concentration 1000.0 nM
[32] = target: Non-receptor tyrosine-protein kinase TNK1 (Homo sapiens) (UniProt Q13470); conditions: Compound concentration 1000.0 nM
[33] = target: Dual specificity protein kinase CLK3 (Homo sapiens) (UniProt P49761); conditions: Compound concentration 1000.0 nM
[34] = target: Myotonin-protein kinase (Homo sapiens) (UniProt Q09013); conditions: Compound concentration 1000.0 nM
[35] = target: Activin receptor type-1B (Homo sapiens) (UniProt P36896); conditions: Compound concentration 1000.0 nM
[36] = target: Mitogen-activated protein kinase 4 (Homo sapiens) (UniProt P31152); conditions: Compound concentration 1000.0 nM
[37] = target: Activin receptor type-1-like (Homo sapiens) (UniProt P37023); conditions: Compound concentration 1000.0 nM
[38] = target: Serine/threonine-protein kinase ULK1 (Homo sapiens) (UniProt O75385); conditions: Compound concentration 1000.0 nM
[39] = target: Tyrosine-protein kinase JAK1 (Homo sapiens) (UniProt P23458); conditions: Compound concentration 1000.0 nM
[40] = target: Dual specificity tyrosine-phosphorylation-regulated kinase 1B (Homo sapiens) (UniProt Q9Y463); conditions: Compound concentration 1000.0 nM
[41] = target: Platelet-derived growth factor receptor beta (Homo sapiens) (UniProt P09619); conditions: Compound concentration 1000.0 nM
[42] = target: Serine/threonine-protein kinase VRK2 (Homo sapiens) (UniProt Q86Y07); conditions: Compound concentration 1000.0 nM
[43] = target: Myosin light chain kinase (Homo sapiens) (UniProt Q32MK0); conditions: Compound concentration 1000.0 nM
[44] = target: Phosphatidylinositol 5-phosphate 4-kinase type-2 gamma (Homo sapiens) (UniProt Q8TBX8); conditions: Compound concentration 1000.0 nM

Phosphatidylinositol 4,5-bisphosphate 3-kinase catalytic subunit alpha isoform (Homo sapiens), P42336 [E545A], sequence (P42336 whole entry E545A, canonical isoform): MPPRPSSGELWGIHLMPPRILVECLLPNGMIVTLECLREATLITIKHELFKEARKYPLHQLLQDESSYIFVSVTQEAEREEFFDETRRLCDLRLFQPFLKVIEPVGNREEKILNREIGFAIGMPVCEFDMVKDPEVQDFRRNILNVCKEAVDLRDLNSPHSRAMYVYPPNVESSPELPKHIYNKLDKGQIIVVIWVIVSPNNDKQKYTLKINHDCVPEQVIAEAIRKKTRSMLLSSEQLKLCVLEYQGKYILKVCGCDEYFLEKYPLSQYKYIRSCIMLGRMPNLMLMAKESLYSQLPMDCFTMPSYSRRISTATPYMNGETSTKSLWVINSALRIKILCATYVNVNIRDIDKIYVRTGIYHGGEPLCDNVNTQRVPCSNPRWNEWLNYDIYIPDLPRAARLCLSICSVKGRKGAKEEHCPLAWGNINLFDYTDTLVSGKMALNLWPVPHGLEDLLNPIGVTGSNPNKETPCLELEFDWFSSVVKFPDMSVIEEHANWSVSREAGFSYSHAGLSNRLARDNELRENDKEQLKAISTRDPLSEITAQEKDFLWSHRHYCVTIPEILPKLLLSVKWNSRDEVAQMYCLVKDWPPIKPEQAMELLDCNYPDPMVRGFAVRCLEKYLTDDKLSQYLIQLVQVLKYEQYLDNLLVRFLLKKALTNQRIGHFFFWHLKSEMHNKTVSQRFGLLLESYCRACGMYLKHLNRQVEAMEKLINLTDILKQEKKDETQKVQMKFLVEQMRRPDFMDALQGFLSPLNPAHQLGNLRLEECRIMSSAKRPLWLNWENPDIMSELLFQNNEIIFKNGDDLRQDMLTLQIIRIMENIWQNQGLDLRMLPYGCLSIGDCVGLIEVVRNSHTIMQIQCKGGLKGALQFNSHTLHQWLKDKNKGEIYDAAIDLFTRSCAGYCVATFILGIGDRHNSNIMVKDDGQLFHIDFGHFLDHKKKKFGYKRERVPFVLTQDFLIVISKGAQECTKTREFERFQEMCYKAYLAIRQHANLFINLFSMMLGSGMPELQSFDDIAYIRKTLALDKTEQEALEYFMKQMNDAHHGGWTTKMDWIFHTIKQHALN
Mitogen-activated protein kinase 4 (Homo sapiens), sequence (P31152 whole entry): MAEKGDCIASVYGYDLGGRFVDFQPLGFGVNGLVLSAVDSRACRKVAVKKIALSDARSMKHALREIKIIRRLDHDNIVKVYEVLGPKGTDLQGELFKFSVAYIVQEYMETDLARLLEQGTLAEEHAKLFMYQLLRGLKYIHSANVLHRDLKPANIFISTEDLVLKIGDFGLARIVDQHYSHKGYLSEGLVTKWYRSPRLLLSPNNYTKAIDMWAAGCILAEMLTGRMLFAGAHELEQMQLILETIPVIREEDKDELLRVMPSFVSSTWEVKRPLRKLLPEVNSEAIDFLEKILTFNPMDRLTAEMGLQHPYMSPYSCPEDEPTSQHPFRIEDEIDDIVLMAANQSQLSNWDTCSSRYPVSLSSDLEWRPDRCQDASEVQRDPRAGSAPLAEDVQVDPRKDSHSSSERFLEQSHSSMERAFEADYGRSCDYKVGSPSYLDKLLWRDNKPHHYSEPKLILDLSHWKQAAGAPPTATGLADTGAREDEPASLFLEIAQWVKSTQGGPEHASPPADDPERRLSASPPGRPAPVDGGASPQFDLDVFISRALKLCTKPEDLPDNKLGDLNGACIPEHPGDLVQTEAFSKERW
5-hydroxytryptamine receptor 6 (Homo sapiens), sequence (P50406 whole entry): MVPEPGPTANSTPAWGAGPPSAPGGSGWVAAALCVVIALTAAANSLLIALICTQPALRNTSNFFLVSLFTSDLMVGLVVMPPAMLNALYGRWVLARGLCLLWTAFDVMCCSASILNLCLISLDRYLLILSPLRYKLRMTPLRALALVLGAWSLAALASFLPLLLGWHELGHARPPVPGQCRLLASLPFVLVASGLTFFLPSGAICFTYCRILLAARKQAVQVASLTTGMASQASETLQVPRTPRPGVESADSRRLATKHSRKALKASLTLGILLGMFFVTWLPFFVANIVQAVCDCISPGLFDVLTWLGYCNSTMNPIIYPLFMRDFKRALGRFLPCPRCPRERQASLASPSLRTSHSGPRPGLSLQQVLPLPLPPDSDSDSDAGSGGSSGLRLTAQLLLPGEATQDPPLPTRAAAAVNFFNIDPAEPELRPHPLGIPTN
Dual specificity tyrosine-phosphorylation-regulated kinase 2 (Homo sapiens), sequence (Q92630 whole entry): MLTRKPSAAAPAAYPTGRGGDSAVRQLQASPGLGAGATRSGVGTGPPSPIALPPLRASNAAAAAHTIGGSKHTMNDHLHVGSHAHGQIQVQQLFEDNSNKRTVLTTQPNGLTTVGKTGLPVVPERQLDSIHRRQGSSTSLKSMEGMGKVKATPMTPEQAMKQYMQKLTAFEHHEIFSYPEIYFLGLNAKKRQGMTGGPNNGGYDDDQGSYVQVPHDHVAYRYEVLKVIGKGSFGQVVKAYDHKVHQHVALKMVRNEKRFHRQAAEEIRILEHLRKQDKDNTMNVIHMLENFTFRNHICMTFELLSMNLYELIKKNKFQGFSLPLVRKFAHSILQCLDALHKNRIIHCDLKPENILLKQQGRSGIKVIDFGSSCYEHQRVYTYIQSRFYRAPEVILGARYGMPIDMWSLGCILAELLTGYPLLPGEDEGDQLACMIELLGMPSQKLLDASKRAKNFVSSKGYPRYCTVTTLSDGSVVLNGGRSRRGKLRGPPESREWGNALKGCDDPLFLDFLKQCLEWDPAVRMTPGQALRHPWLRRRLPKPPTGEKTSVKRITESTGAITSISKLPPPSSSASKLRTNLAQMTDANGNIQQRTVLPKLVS
Cyclin-dependent kinase 7 (Homo sapiens), sequence (P50613 whole entry): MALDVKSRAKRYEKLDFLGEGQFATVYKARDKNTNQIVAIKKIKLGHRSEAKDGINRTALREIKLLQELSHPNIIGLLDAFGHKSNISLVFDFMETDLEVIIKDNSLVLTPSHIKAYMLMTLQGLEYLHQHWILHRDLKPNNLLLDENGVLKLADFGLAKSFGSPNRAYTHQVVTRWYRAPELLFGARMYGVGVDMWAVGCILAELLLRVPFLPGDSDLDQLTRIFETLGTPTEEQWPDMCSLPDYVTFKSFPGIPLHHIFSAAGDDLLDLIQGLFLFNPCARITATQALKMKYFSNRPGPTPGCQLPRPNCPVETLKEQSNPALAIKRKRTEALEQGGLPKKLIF
SNF-related serine/threonine-protein kinase (Homo sapiens), sequence (Q9NRH2 whole entry): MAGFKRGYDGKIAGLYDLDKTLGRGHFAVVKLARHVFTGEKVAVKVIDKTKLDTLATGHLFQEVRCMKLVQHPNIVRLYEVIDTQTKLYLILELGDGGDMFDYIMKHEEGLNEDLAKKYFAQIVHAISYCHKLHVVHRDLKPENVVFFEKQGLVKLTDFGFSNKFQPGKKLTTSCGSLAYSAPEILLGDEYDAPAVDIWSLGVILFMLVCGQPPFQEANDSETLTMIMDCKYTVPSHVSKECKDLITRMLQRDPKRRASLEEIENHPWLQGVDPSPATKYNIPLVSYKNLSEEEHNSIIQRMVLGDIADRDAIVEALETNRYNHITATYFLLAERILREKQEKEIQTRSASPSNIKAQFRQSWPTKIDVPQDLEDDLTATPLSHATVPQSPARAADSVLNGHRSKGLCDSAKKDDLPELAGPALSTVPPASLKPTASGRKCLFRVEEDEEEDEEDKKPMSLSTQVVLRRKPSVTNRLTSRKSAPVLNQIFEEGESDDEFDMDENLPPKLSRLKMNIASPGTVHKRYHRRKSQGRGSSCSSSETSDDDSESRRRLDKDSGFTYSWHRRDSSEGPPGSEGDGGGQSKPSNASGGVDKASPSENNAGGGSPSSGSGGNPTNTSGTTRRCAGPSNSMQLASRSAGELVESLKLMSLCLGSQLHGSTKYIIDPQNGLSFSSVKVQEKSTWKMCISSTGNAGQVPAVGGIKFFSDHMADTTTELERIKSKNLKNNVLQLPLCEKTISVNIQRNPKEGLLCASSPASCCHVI
Cyclin-dependent kinase 4 (Homo sapiens), sequence (P11802 whole entry): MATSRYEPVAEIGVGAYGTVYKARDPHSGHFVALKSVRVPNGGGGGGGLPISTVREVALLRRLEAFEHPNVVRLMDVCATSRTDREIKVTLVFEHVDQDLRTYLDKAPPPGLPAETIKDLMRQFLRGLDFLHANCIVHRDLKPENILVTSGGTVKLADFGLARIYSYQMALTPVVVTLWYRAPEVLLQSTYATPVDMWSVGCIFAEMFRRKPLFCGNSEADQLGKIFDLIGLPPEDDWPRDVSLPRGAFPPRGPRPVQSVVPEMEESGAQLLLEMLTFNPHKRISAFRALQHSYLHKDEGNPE
Serine/threonine-protein kinase VRK2 (Homo sapiens), sequence (Q86Y07 whole entry): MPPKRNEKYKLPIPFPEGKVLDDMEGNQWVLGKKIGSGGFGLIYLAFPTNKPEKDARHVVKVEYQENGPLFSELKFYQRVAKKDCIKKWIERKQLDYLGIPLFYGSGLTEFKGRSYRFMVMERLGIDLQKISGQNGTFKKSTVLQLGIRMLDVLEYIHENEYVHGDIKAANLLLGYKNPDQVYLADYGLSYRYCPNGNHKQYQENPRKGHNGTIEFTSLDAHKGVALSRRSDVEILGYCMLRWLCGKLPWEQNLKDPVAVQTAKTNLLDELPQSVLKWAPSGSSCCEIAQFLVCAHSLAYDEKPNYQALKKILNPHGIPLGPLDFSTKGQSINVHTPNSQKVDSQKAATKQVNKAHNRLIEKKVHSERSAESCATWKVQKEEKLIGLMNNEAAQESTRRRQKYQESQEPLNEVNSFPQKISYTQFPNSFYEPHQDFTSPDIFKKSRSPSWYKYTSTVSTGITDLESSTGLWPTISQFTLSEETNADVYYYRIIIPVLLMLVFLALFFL
Casein kinase II subunit alpha (Homo sapiens), sequence (P68400 whole entry, looked up): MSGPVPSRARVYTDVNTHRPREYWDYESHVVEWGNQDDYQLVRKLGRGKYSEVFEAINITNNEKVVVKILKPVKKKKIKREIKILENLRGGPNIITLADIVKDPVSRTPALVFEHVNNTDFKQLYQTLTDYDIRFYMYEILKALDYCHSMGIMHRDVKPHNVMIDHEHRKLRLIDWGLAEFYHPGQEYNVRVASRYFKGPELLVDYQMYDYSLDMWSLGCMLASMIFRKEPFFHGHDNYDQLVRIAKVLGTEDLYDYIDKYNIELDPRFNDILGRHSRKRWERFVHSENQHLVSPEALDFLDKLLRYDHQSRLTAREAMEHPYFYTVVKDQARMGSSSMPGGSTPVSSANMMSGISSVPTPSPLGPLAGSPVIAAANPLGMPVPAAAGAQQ

Compound `O=C(O)[C@@H]1[C@@H](Cn2nnc3ccccc3c2=O)CC[C@H]1C(=O)c1ccc(OCCC2CCOCC2)cc1` [BAY-694] has a residual activity [1] of 100%, a residual activity [2] of 86% and a residual activity [3] of 100%. The residual activity [4] was 100%, the residual activity [5] was 96% and the residual activity [6] was 100%. It also gave a residual activity [7] of 86%, a residual activity [8] of 91% and a residual activity [9] of 90%. For the same compound, the residual activity [10] was 100%, the residual activity [11] was 90% and the residual activity [12] was 95%. For the same compound, the residual activity [13] was 88%, the residual activity [14] was 100% and the inhibition [15] was 26.9%. It also gave a residual activity [16] of 100%, a residual activity [17] of 100% and a residual activity [18] of 95%. The residual activity [19] was 100%, the residual activity [20] was 97% and the inhibition [21] was 6.29%. For the same compound, the inhibition (Rattus norvegicus) was 13.4%, the inhibition [22] was 19.6% and the residual activity [23] was 34%. It also gave a residual activity [24] of 100%, a residual activity [25] of 98% and a residual activity [26] of 87%. It also gave a residual activity [27] of 100%, a residual activity [28] of 78% and a residual activity [29] of 83%. For the same compound, the inhibition [30] was 1.82%, the residual activity [31] was 100% and the residual activity [32] was 100%. For the same compound, the residual activity [33] was 91%, the residual activity [34] was 100% and the residual activity [35] was 100%. It also gave a residual activity [36] of 100%, a residual activity [37] of 97% and a residual activity [38] of 100%. It also gave a residual activity [39] of 100%, a residual activity [40] of 86% and a residual activity [41] of 100%. It also gave a residual activity [42] of 80%, a residual activity [43] of 72% and a residual activity [44] of 89%.

In the case of `O=C(O)[C@H]1[C@H](Cn2nnc3ccccc3c2=O)CC[C@@H]1C(=O)c1ccc(OCCC2CCOCC2)cc1` [BAY-7598], the residual activity [1] was 100%, the residual activity [2] was 97% and the residual activity [3] was 100%. It also gave a residual activity [4] of 75%, a residual activity [5] of 100% and a residual activity [6] of 95%. The residual activity [7] was 95%, the residual activity [8] was 100% and the residual activity [9] was 93%. For the same compound, the residual activity [10] was 100%, the residual activity [11] was 84% and the residual activity [12] was 100%. The residual activity [13] was 82%, the residual activity [14] was 100% and the inhibition [15] was 16.6%. It also gave a residual activity [16] of 77%, a residual activity [17] of 100% and a residual activity [18] of 95%. It also gave a residual activity [19] of 79%, a residual activity [20] of 92% and an inhibition [21] of 7.47%. For the same compound, the inhibition (Rattus norvegicus) was 9.67%, the inhibition [22] was 7.53% and the residual activity [23] was 73%. It also gave a residual activity [24] of 100%, a residual activity [25] of 100% and a residual activity [26] of 100%. It also gave a residual activity [27] of 91%, a residual activity [28] of 61% and a residual activity [29] of 89%. The inhibition [30] was 4.3%, the residual activity [31] was 87% and the residual activity [32] was 100%. For the same compound, the residual activity [33] was 100%, the residual activity [34] was 83% and the residual activity [35] was 74%. For the same compound, the residual activity [36] was 82%, the residual activity [37] was 85% and the residual activity [38] was 95%. It also gave a residual activity [39] of 100%, a residual activity [40] of 100% and a residual activity [41] of 88%. The residual activity [42] was 80%, the residual activity [43] was 93% and the residual activity [44] was 100%.
